According to patent EP4389123A1 (priority 2022, dated 2024):

Experiments:
RML = test system: RML; set-up: species or system mice; settings: mouse, in vivo
22L = test system: 22L; set-up: species or system mice; settings: mouse, in vivo
[1] = test system: human prion strain causing Gerstmann-Sträussler-Scheinker syndrome (GSS); set-up: species or system mice; settings: mouse, in vivo, ip
murine prion strain RML = murine prion strain RML (Mus musculus, UniProt P04925); assay type: biochemical
Vole-CWD prion strain = test system: Vole-CWD prion strain; set-up: species or system mice; settings: mouse, in vivo
301C = test system: 301C; set-up: species or system mice; settings: mouse, in vivo

Sequence of murine prion strain RML (P04925 23-230 limits assumed): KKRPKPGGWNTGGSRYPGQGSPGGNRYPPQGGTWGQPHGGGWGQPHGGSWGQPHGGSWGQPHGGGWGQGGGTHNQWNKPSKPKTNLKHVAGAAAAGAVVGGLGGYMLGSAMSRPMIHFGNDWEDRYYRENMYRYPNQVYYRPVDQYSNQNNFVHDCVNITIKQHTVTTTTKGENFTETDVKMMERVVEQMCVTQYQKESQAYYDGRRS

Row | Compound | increase in survival times (RML) | survival time prolongation (22L) | increase in survival time [1] | prion propagation inhibitory capacity (murine prion strain RML) | times more efficient as inhibitor (murine prion strain RML) | increase in survival time (Vole-CWD prion strain) | survival time prolongation (301C)
1 | O=C(O)CCC1=C(CC(=O)O)c2cc3[nH]c(cc4nc(cc5[nH]c(cc1n2)c(CC(=O)O)c5CCC(=O)O)C(CC(=O)O)=C4CCC(=O)O)c(CC(=O)O)c3CCC(=O)O [UROI, uroporphyrin I] | 30% | 10% | > 200% | showed prion propagation inhibitory capacity | 125 times | 11% | 12%
2 | C[n+]1ccc(-c2c3nc(c(-c4cc[n+](C)cc4)c4ccc([nH]4)c(-c4cc[n+](C)cc4)c4nc(c(-c5cc[n+](C)cc5)c5ccc2[nH]5)C=C4)C=C3)cc1 [TMPyP, reference compound] | – | – | – | showed prion propagation inhibitory capacity | – | – | –
